# Reference: PMC4257617, “Structures of trehalose synthase from Deinococcus radiodurans reveal that a closed conformation is involved in catalysis of the intramolecular isomerization” (Acta Crystallographica Section D: Biological Crystallography, 2014)
# Legend:
# [1] = biological target: T1, DrTS (trehalose synthase) (Deinococcus radiodurans, UniProt I3NX86); assay: isomerase assay (trehalose from maltose), HPLC with refractive-index detection; assay type: biochemical
# T1 construct: full length, about 552 residues plus vector linkers (residues 1-5 disordered); pET-23a(+), Ni-NTA purified, E. coli BL21 (DE3); homodimer
# T1 sequence (I3NX86 1-552): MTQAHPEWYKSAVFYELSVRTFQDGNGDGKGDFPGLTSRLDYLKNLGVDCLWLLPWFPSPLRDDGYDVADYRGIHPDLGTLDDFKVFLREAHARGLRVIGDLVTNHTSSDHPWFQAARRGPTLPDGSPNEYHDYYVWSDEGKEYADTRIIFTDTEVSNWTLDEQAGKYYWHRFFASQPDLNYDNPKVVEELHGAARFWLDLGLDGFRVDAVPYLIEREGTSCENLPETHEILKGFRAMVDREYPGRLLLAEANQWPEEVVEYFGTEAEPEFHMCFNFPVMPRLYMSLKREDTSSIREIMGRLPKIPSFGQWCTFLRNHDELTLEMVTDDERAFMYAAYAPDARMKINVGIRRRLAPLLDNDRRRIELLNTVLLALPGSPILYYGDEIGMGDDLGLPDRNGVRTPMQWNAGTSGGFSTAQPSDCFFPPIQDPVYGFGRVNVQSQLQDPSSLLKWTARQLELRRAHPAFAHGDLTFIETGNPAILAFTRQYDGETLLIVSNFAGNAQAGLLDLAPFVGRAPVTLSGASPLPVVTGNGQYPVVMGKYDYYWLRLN
# [2] = biological target: Deinococcus radiodurans trehalose synthase, wild type (Deinococcus radiodurans); assay: AUC; sedimentation velocity, 293 K, 42 000 rev/min; enzyme 0.1 mg/ml in 20 mM Tris-HCl pH 7.5, 100 mM NaCl; c(s) distribution with SEDFIT
IC50 [1] [mM],stoichiometry N [2],Compound
4.88,–,NC(CO)(CO)CO [Tris]
–,2,"Deinococcus radiodurans trehalose synthase, wild type (enzyme)"
